Measured values taken from EPA's ToxRefDB 2.

Columns and labels:
[1] = test system: mouse; details: Carcinogenicity; b6c3f1; Oral; Feed; dose end: 103 week; group: systemic; systemic / in life observation / clinical signs / alopecia + systemic / in life observation / clinical signs / aggressive behavior
[2] = test system: rat; details: Subchronic oral toxicity in rodents, fischer, Feed, dose end: 13 week, group: systemic, systemic / in life observation / body weight / body weight gain
[3] = test system: rat; details: Subchronic oral toxicity in rodents, long evans, Feed, dose end: 96 day, group: systemic, systemic / in life observation / body weight / body weight gain + systemic / in life observation / food consumption / food efficiency
[4] = test system: rat; details: Subchronic inhalation toxicity, long evans, Whole-Body, dose end: 58 day, group: systemic, systemic / in life observation / clinical signs / abnormal movements
[5] = test system: mouse; details: Subchronic oral toxicity in rodents, b6c3f1, Feed, dose end: 13 week, group: systemic, systemic / in life observation / mortality / mortality
[6] = test system: rat; details: Prenatal developmental toxicity study, sprague dawley, Oral, Gavage/Intubation, dose end: 18 GD
[7] = test system: rabbit; details: Prenatal developmental toxicity study, himalayan, Oral, Gavage/Intubation, dose end: 18 GD
[8] = test system: rabbit; details: Prenatal developmental toxicity study; himalayan; Oral; Gavage/Intubation; dose end: 18 GD; group: maternal; systemic / in life observation / body weight / body weight gain + systemic / in life observation / food consumption / food consumption
[9] = test system: mouse; details: Subchronic oral toxicity in rodents, cd1, Gavage/Intubation, dose end: 90 day, group: systemic
[10] = test system: rat; details: Sub-acute repeat dose toxicity, sprague dawley, Oral, Gavage/Intubation, dose end: 4 week, group: systemic
[11] = test system: dog; details: Sub-acute repeat dose toxicity, beagle, Oral, Gavage/Intubation, dose end: 4 week, group: systemic
[12] = test system: rat; details: Prenatal developmental toxicity study, sprague dawley, Oral, Gavage/Intubation, dose end: 18 GD; remark: listed apart in the source
[13] = group: developmental, systemic / in life observation / body weight / fetal weight
[14] = group: maternal, systemic / in life observation / body weight / body weight + systemic / in life observation / food consumption / food consumption
[15] = group: developmental, developmental / developmental malformation / bone / delayed ossification + developmental / developmental malformation / lung / [other]
[16] = group: developmental, developmental / developmental malformation / bone / delayed ossification + developmental / developmental malformation / lung / [other] + …
[17] = systemic / in life observation / body weight / body weight + systemic / organ weight / brain / relative to body weight + systemic / organ …
[18] = systemic / in life observation / body weight / body weight + systemic / organ weight / liver / relative to body weight + systemic / …
[19] = systemic / hematology / hematocrit (hct) / hematocrit (hct) + systemic / hematology / hemoglobin (hgb) / hemoglobin (hgb)
[20] = systemic / hematology / hematocrit (hct) / hematocrit (hct) + systemic / hematology / hemoglobin (hgb) / hemoglobin (hgb) + systemic / in …
[21] = systemic / clinical chemistry / alkaline phosphatase (alp/alk) / alkaline phosphatase (alp/alk) + systemic / hematology / blood clotting / …
[22] = systemic / hematology / blood clotting / blood clotting - prothrombin time + systemic / hematology / reticulocyte / reticulocyte
[23] = group: developmental, developmental / developmental malformation / bone / incomplete ossification
[24] = group: maternal, systemic / in life observation / body weight / body weight + systemic / in life observation / food consumption / food consumption + systemic…

With `COC(=O)c1ccc(C(=O)OC)cc1` [Dimethyl terephthalate] the LEL [1] was 375 mg/kg/day, the LOAEL [1] was greater than 750 mg/kg/day and the NEL [1] was less than 375 mg/kg/day. The NOAEL [1] was no less than 750 mg/kg/day, the LEL [2] was 500 mg/kg/day and the LOAEL [2] was 500 mg/kg/day. The NEL [2] was 250 mg/kg/day, the NOAEL [2] was 250 mg/kg/day and the LEL [3] was 500 mg/kg/day. It also gave an LOAEL [3] greater than 500 mg/kg/day, an NEL [3] of 250 mg/kg/day and an NOAEL [3] of no less than 500 mg/kg/day. The LEL [4] was 4 mg/kg/day, the LOAEL [4] was greater than 4 mg/kg/day and the NEL [4] was 0.7 mg/kg/day. The NOAEL [4] was no less than 4 mg/kg/day, the LEL [5] was 375 mg/kg/day and the LOAEL [5] was greater than 3000 mg/kg/day. The NEL [5] was 262 mg/kg/day and the NOAEL [5] was no less than 3000 mg/kg/day.

`OC12N=C(c3ccccc3)SC1Cc1cc(Cl)ccc12` (stereo not given) [HMR1426] was tested, and the LEL [6, 13] was 1000 mg/kg/day, the LOAEL [6, 13] was 1000 mg/kg/day and the NEL [6, 13] was 500 mg/kg/day. For the same compound, the NOAEL [6, 13] was 500 mg/kg/day, the LEL [6, 14] was 500 mg/kg/day and the LOAEL [6, 14] was 500 mg/kg/day. For the same compound, the NEL [6, 14] was less than 500 mg/kg/day, the NOAEL [6, 14] was less than 500 mg/kg/day and the LEL [7, 15] was 62.5 mg/kg/day. For the same compound, the NEL [7, 15] was less than 62.5 mg/kg/day, the LOAEL [7, 16] was greater than 1000 mg/kg/day and the NOAEL [7, 16] was no less than 1000 mg/kg/day. The LEL [7, 14] was 62.5 mg/kg/day, the LOAEL [7, 14] was greater than 1000 mg/kg/day and the NEL [7, 14] was less than 62.5 mg/kg/day. For the same compound, the NOAEL [7, 14] was no less than 1000 mg/kg/day, the LEL [8] was 500 mg/kg/day and the LOAEL [8] was greater than 1000 mg/kg/day. The NEL [8] was less than 500 mg/kg/day, the NOAEL [8] was no less than 1000 mg/kg/day and the LOAEL [9, 17] was greater than 1600 mg/kg/day. The NOAEL [9, 17] was no less than 1600 mg/kg/day, the LEL [9, 18] was 400 mg/kg/day and the NEL [9, 18] was less than 400 mg/kg/day. For the same compound, the LEL [10, 19] was 31.5 mg/kg/day, the NEL [10, 19] was less than 31.5 mg/kg/day and the LOAEL [10, 20] was 315 mg/kg/day. For the same compound, the NOAEL [10, 20] was 31.5 mg/kg/day, the LOAEL [11, 21] was greater than 630 mg/kg/day and the NOAEL [11, 21] was no less than 630 mg/kg/day. The LEL [11, 22] was 63 mg/kg/day, the NEL [11, 22] was less than 63 mg/kg/day and the LEL [12, 23] was 315 mg/kg/day. It also gave an LOAEL [12, 23] of 315 mg/kg/day, an NEL [12, 23] of 100 mg/kg/day and an NOAEL [12, 23] of 100 mg/kg/day. For the same compound, the LEL [12, 14] was 100 mg/kg/day, the NEL [12, 14] was less than 100 mg/kg/day and the LOAEL [12, 24] was 315 mg/kg/day. For the same compound, the NOAEL [12, 24] was 100 mg/kg/day.
